# From the supplement of paper PMC10307832
# Tests used:
# Test in all cases: relative viability (nuclei count vs DMSO), 5 days (fraction); higher = more cells survive
# [1] = compound: Cc1ccc(C(=O)Nc2ccc(CN3CCN(C)CC3)c(C(F)(F)F)c2)cc1C#Cc1cnc2cccnn12 [Ponatinib] + NC(=O)Nc1cc(-c2cccc(F)c2)sc1C(=O)N[C@H]1CCCNC1 [AZD7762] (partner 0.2 µM)
# Summary of the method: (§1)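 One day after seeding in 1536-well plates, lung cancer cell lines were dosed by pin tool. Dosing was either single-drug or a fixed anchor-drug dose plus five library-drug doses (not always all listed) in √10 steps. After 5 days, nuclei were stained in one fix-and-stain step and counted on 4× images, and relative viability is the nuclei count of treated wells over that of vehicle wells, given as the median of duplicate plates.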
# [2] = compound: Cc1ccc(C(=O)Nc2ccc(CN3CCN(C)CC3)c(C(F)(F)F)c2)cc1C#Cc1cnc2cccnn12 [Ponatinib] + O=C(CCCCCCC(=O)Nc1ccccc1)NO [Vorinostat] (partner 1 µM)
# Summary of the method: as §1
# [3] = compound: Cc1ccc(Nc2nccc(N(C)c3ccc4c(C)n(C)nc4c3)n2)cc1S(N)(=O)=O [Pazopanib] + COc1cc2c(Oc3ccc(NC(=O)C4(C(=O)Nc5ccc(F)cc5)CC4)cc3F)ccnc2cc1OCCCN1CCOCC1 [Foretinib] (partner 0.25 µM)
# Summary of the method: as §1
# [4] = compound: Cc1ccc(Nc2nccc(N(C)c3ccc4c(C)n(C)nc4c3)n2)cc1S(N)(=O)=O [Pazopanib] + C[C@@H](Oc1cc(-c2cnn(C3CCNCC3)c2)cnc1N)c1c(Cl)ccc(F)c1Cl [Crizotinib] (partner 1 µM)
# Summary of the method: as §1
Cell Line,relative viability ([1]; first compound 0.002 µM),relative viability ([1]; first compound 0.006325 µM),relative viability ([1]; first compound 0.06325 µM),relative viability ([1]; first compound 0.2 µM),relative viability ([2]; first compound 0.002 µM),relative viability ([2]; first compound 0.006325 µM),relative viability ([2]; first compound 0.06325 µM),relative viability ([2]; first compound 0.2 µM),relative viability ([3]; first compound 0.01 µM),relative viability ([3]; first compound 0.03162 µM),relative viability ([3]; first compound 0.1 µM),relative viability ([3]; first compound 0.3162 µM),relative viability ([3]; first compound 1 µM),relative viability ([4]; first compound 0.01 µM),relative viability ([4]; first compound 0.03162 µM),relative viability ([4]; first compound 0.1 µM),relative viability ([4]; first compound 0.3162 µM),relative viability ([4]; first compound 1 µM)
LCLC-103H,0.699,0.809,0.734,0.753,0.701,0.821,0.848,0.765,0.651,0.897,0.734,0.819,0.894,0.968,1.03,1.14,1.06,1.24
LK-2,0.405,0.431,0.146,0.231,0.261,0.284,0.341,0.345,,1.2,1.07,1.11,1.01,0.224,0.239,0.213,0.21,0.235
LOU-NH91,0.744,0.779,0.801,0.682,0.889,0.988,1.01,0.873,0.898,0.92,0.945,0.967,0.948,0.726,0.731,0.711,0.757,0.761
LU99A,0.308,0.421,0.399,0.48,0.439,0.519,0.535,0.611,0.772,0.906,0.878,0.864,0.837,0.499,0.533,0.53,0.606,0.568
LXF-289,1.03,1.13,1.19,1.1,0.646,0.746,0.732,0.793,1.06,1.06,1.08,0.99,0.996,0.851,0.829,0.801,0.782,0.824
NCI-H23,0.266,0.244,0.237,0.14,0.504,0.588,0.607,0.634,1.1,1.02,0.964,0.947,1.12,0.594,0.474,0.577,0.735,0.591
NCI-H322M,0.566,0.483,0.543,0.448,0.882,0.823,0.833,0.741,0.908,1.25,0.921,0.966,0.93,0.922,0.924,0.784,0.893,0.844
NCI-H358,0.45,0.567,0.509,0.46,0.644,0.634,0.669,0.551,0.726,0.91,0.838,,0.918,0.722,0.688,0.518,0.622,0.478
NCI-H441,1.18,1.19,1.35,1.14,0.647,0.675,0.822,0.757,0.974,1.14,0.859,1,0.857,0.686,0.704,0.639,0.625,0.596
NCI-H460,0.478,0.552,0.564,0.576,0.665,0.657,0.74,0.664,0.942,1.07,1.01,1.03,0.997,0.931,1.15,0.849,1,0.963
NCI-H596,1.08,1.04,0.912,0.632,0.659,0.7,0.556,0.522,,0.723,0.9,0.815,0.84,0.905,1.15,1.01,0.986,0.926
NCI-H647,0.294,0.381,0.482,0.335,0.381,0.588,0.686,0.513,1.13,0.974,1.14,0.925,0.854,1,1.22,1.26,1.01,1.06
NCI-H650,0.695,0.92,0.981,0.572,0.3,0.441,0.444,0.447,1.02,1.11,0.995,0.898,0.818,0.755,0.907,0.608,0.784,0.603
NCI-H727,0.508,0.575,0.567,0.576,1.08,1.09,1.21,1.09,0.698,0.981,1.04,1.23,0.913,0.98,0.787,1.15,0.831,1.08
NCI-H838,0.899,0.935,0.95,0.774,0.755,0.764,0.773,0.664,0.996,1.02,1.02,1.08,1.18,0.821,0.951,0.982,0.912,1.08
NCI-H1355,0.696,0.742,0.829,0.717,0.564,0.604,0.677,0.615,0.804,1,1.08,0.979,1,,0.965,1.08,0.982,1.05
NCI-H1437,1.02,1.07,1.17,1.03,0.859,0.858,0.938,0.901,1.33,1.25,1.16,1.21,1.31,0.936,0.935,0.953,0.807,1.05
NCI-H1651,0.336,0.465,0.458,0.509,0.507,0.579,0.602,0.601,0.836,0.734,0.817,0.773,0.895,0.809,0.775,0.822,0.853,0.924
NCI-H1666,0.823,0.863,0.889,0.902,0.998,1.01,1.08,0.89,0.998,1.01,0.995,1.02,1.1,1.09,1,0.875,1.09,1.27
NCI-H1734,0.514,0.516,0.418,0.461,0.763,0.777,0.914,0.773,0.829,0.948,0.873,0.893,0.926,0.689,0.727,0.614,0.658,0.622
NCI-H1755,0.409,0.379,0.381,0.362,0.685,0.777,0.72,0.82,0.79,0.868,0.896,0.872,0.874,0.817,0.847,0.962,0.844,0.857
NCI-H1915,0.553,0.697,0.591,0.651,0.457,0.49,0.469,0.491,1.04,1.09,1.1,1.06,0.983,0.875,0.974,0.911,0.847,0.79
NCI-H1944,0.454,0.489,0.543,0.664,0.519,0.637,0.693,0.679,,0.94,0.905,0.861,0.986,1.13,1.11,1.05,1.04,1.05
NCI-H1975,0.599,0.706,0.726,0.615,0.669,0.71,0.688,0.579,0.911,0.945,0.997,1.03,1.03,0.888,1.02,0.991,0.964,0.926
NCI-H1993,0.65,0.86,0.773,0.689,0.783,1.19,0.962,0.734,,0.69,0.783,0.728,0.817,0.871,0.902,0.971,0.926,0.877
NCI-H2085,0.962,0.944,0.909,0.814,0.768,0.877,1.02,0.825,0.972,1.06,1.01,0.96,1.11,0.952,0.968,0.911,0.919,0.935
NCI-H2087,1.05,1.07,1.43,1.19,0.635,0.549,0.366,0.662,1.27,0.966,1.03,1.13,0.796,0.952,0.76,1.01,0.812,0.701
NCI-H2126,0.978,0.965,1.09,0.998,0.784,0.777,0.988,0.789,1.16,1.18,1.26,1.06,1.06,0.935,1.09,1.03,0.96,1.03
NCI-H2170,0.799,0.927,0.789,0.833,0.679,0.808,0.843,0.781,1.06,1.08,1.01,1.02,1.07,1.21,1.32,1.26,1.15,1.14
NCI-H2347,0.747,0.75,0.626,0.662,0.496,0.554,0.643,0.504,,,0.934,1.21,0.843,0.885,0.643,0.662,0.691,0.842
